The values that follow come from the OligoGym collection.

Where “and” joins values, the source holds several entries; their conditions need not be identical. Equal values may be shown once. After the bases stand the sugars from the 5' end (letter, count) and the backbone: PS all phosphorothioate, else s phosphorothioate and o phosphodiester by linkage. Methylation of C is not given here. e = 2'-O-(2-methoxyethyl) (MOE); k = constrained ethyl (cEt); d = 2'-deoxy (DNA)

The target of data set [1] is DGAT2. The note with it: ASO.
In data set [2] the target is SOD1. The note with it: ASO.

Consider “TCCATTTTTTACCCAACCTT (sugars e5 d10 e5, PS)”, for which the target mRNA inhibition in data set [1] (HepG2, 2.5 µM) is 56% and 49%; in data set [1] (HepG2, 10 µM), 93% and 94%.

As for “GATGCTCCAGGTGGGCCAGA (sugars e5 d10 e5, PS)”, the target mRNA inhibition in data set [1] (HepG2, 2.5 µM) was 52%; in data set [1] (HepG2, 10 µM), 82%.

With “GTTCTTTTGGAAGGGTGGAG (sugars e5 d10 e5, PS)”, the target mRNA inhibition in data set [1] (HepG2, 0.12 µM) stood at 52%.

As for “CTATAGAATCAGACAGACCT (sugars e5 d10 e5, PS)”, the target mRNA inhibition in data set [1] (HepG2, 2.5 µM) was 31%; in data set [1] (HepG2, 10 µM), 78%.

“GCTGCATCCATGTCATCAGC (sugars e5 d10 e5, PS)” displayed a target mRNA inhibition in data set [1] (HepG2, 0.12 µM) of 43%.

“GAGAAGAGGTCCTGGAGGGC (sugars e5 d10 e5, PS)” registered a target mRNA inhibition in data set [1] (HepG2, 0.12 µM) of 10%.

“AAGGTAAACTGAGGCCACCA (sugars e5 d10 e5, PS)” yielded a target mRNA inhibition in data set [1] (HepG2, 0.12 µM) of 37%.

Regarding “CACTGGAGCACTGAGATGAC (sugars e2 d13 e5, PS)”, in data set [1] (HepG2, 0.12 µM), the target mRNA inhibition was found to be 61%.

“GGAAACTTTCCCACAGTCAG (sugars e5 d10 e5, PS)”: the target mRNA inhibition in data set [1] (HepG2, 2.5 µM) was determined as 69%; in data set [1] (HepG2, 10 µM), 94%.

“TATGCCTGGGAACTTCTTGC (sugars e5 d10 e5, PS)”: in data set [1] (HepG2, 0.12 µM), the target mRNA inhibition turned out to be 26%.

In data set [1] (HepG2, 0.12 µM), “ATAGCATTGCCACTCCCATT (sugars e3 d14 e3, PS)” registered a target mRNA inhibition of 71%.

As to “AAATCACAGAATTATCAGCA (sugars e5 d10 e5, PS)”, the target mRNA inhibition in data set [1] (HepG2, 2.5 µM) came to 57%; in data set [1] (HepG2, 10 µM), 92%.

Regarding “GGTTCTTGTCCTGGTCCCAG (sugars e5 d10 e5, PS)”, the target mRNA inhibition in data set [1] (HepG2, 2.5 µM) is 75% and 77%; in data set [1] (HepG2, 10 µM) it was 90% and 94%.

Sequence “ACAAAGCCCTTGCGGTTCCG (sugars e5 d10 e5, PS)” showed a target mRNA inhibition in data set [1] (HepG2, 0.12 µM) of 35%.

Sequence “GCTGCATCCATGTCATCAGC (sugars e2 d16 e2, PS)” displayed a target mRNA inhibition in data set [1] (HepG2, 0.12 µM) of 53%.

“GGAGCTCAGAGACTCAGCCG (sugars e5 d10 e5, PS)” registered a target mRNA inhibition in data set [1] (HepG2, 0.12 µM) of 73%.

As to “AGCCAGGTAAGGCCGTATGC (sugars e5 d10 e5, PS)”, the target mRNA inhibition in data set [1] (HepG2, 0.12 µM) came out at 70%.

On to “AGCCTGGATGGTGGTTGCAA (sugars e5 d10 e5, PS)”, for which the target mRNA inhibition in data set [1] (HepG2, 2.5 µM) amounted to 73%; in data set [1] (HepG2, 10 µM), 78%.

In the case of “CAGGGTCCTCTCCGCTGCCT (sugars e5 d10 e5, PS)”, the target mRNA inhibition in data set [1] (HepG2, 2.5 µM) was 78% and 80%; in data set [1] (HepG2, 10 µM), 85% and 87%.

Take “CGCAGGACCCCGGAGTAGGC (sugars e5 d10 e5, PS)”: the target mRNA inhibition in data set [1] (HepG2, 0.12 µM) was 75% and 70%.

As for “AAGTGACAAAGTCTATCAGG (sugars e5 d10 e5, PS)”, the target mRNA inhibition in data set [1] (HepG2, 2.5 µM) is 61%; in data set [1] (HepG2, 10 µM) it was 87%.

With “CCTCAGGAAGGCACAGAAAA (sugars e5 d10 e5, PS)”, the target mRNA inhibition in data set [1] (HepG2, 0.12 µM) was 40%.

Sequence “GCTATTCATTTTTCTGAGCC (sugars e5 d10 e5, PS)” gave a target mRNA inhibition in data set [1] (HepG2, 0.12 µM) of 47%.

Regarding “TCAGCAGGTTGTGTGTCTTC (sugars e5 d10 e5, PS)”, the target mRNA inhibition in data set [1] (HepG2, 0.12 µM) came out at 56%; in data set [1] (HepG2, 2.5 µM), 3%.

As to “AGGCACCTGTTACTACATGT (sugars e5 d10 e5, PS)”, the target mRNA inhibition is 78% in data set [1] (HepG2, 2.5 µM); 93% and 91% in data set [1] (HepG2, 10 µM).

For “AAGCCTCGGTGTCCTCT (sugars e3 d10 e4, PS)”, the target mRNA inhibition was 56% and 70% in data set [1] (HepG2, 2.5 µM); 87% and 90% in data set [1] (HepG2, 10 µM).

For the sequence “GCCACAGGGCCCTTTCCAGA (sugars e5 d10 e5, PS)”, the target mRNA inhibition was determined as 68% in data set [1] (HepG2, 2.5 µM) and 92% in data set [1] (HepG2, 10 µM).

“GTTTTCTGGATAGAGGATTA (sugars e5 d10 e5, PS)”: in data set [2] (HepG2, 5 µM), the target mRNA inhibition was 28% and 39%.

On to “TCAGTTTCTCACTACAG (sugars e2 k2 d8 k2 e3, PS)”, for which, in data set [2] (HepG2, 5 µM), the target mRNA inhibition was determined as 25%.

The sequence “TTACTTTCCTTCTGCTC (sugars e3 k2 d7 k2 e3, PS)” displayed a target mRNA inhibition in data set [2] (HepG2, 3 µM) of 22%.

As for “AAATACAGGTCATTGAA (sugars e3 k2 d7 k2 e3, PS)”, in data set [2] (HepG2, 3 µM), the target mRNA inhibition was found to be 2%.

“ATAATAAGTGCCATACA (sugars e2 k2 d9 k2 e2, PS)” registered a target mRNA inhibition in data set [2] (HepG2, 5 µM) of 27%.

“TCTTCATCCTTTGGCCC (sugars e3 k2 d7 k2 e3, PS)” gave a target mRNA inhibition in data set [2] (HepG2, 3 µM) of 15%.

“AACAGATGAGTTAAGGG (sugars e2 k2 d8 k2 e3, PS)”: the target mRNA inhibition turned out to be 32% in data set [2] (HepG2, 0.1875 µM); 55% in data set [2] (HepG2, 0.75 µM); 78% in data set [2] (HepG2, 3 µM); 73% in data set [2] (HepG2, 4 µM); 93% in data set [2] (HepG2, 12 µM).

For “TTAATGTTTATCAGGAT (sugars e2 k2 d8 k2 e3, linkages s1 o2 s9 o2 s2)”, the target mRNA inhibition turned out to be 12% in data set [2] (A431, 0.12 µM); 36% in data set [2] (A431, 0.6 µM); 49% in data set [2] (A431, 3 µM); 72% in data set [2] (A431, 15 µM); 67% in data set [2] (HepG2, 0.222 µM); 90% in data set [2] (HepG2, 0.667 µM). Also, the target mRNA inhibition turned out to be 97% in data set [2] (HepG2, 2 µM) and 94% in data set [2] (HepG2, 6 µM).
